Assay results from patent US8178506B2, “Oligomeric compounds and compositions for use in modulation of small non-coding RNAs” (Regulus Therapeutics Inc., priority 2003, dated 2012).

What was measured:
Format in all cases: cell-based, human
Settings in all cases: differentiating adipocytes transfected with oligomeric compound; Table 75
PPARγ = PPARγ mRNA expression in adipocytes (real-time PCR)
aP2 = aP2 mRNA expression in adipocytes (real-time PCR)
HSL = HSL mRNA expression in adipocytes (real-time PCR)
adipocytes = assay: Triglyceride accumulation assay in adipocytes
Glut4 = Glut4 mRNA expression in adipocytes (real-time PCR)

346685 (GGCGGAACUUAGCCACUGUGAA; all 2'-MOE, all phosphorothioate, methylation of C and T or U not given here) [compound 346685]
PPAR gamma mRNA (PPARγ): 138 percentage of untreated control (UTC) | aP2 mRNA (aP2): 181 percentage of untreated control (UTC) | HSL mRNA (HSL): 172 percentage of untreated control (UTC) | TG (triglyceride accumulation) (adipocytes): 164 percentage of untreated control (UTC) | GLUT4 mRNA (Glut4): 233 percentage of untreated control (UTC)

346686 (CUUCAGUUAUCACAGUACUGUA; all 2'-MOE, all phosphorothioate, methylation of C and T or U not given here) [compound 346686]
PPAR gamma mRNA (PPARγ): 83 percentage of untreated control (UTC) | aP2 mRNA (aP2): 83 percentage of untreated control (UTC) | HSL mRNA (HSL): 80 percentage of untreated control (UTC) | TG (triglyceride accumulation) (adipocytes): 73 percentage of untreated control (UTC) | GLUT4 mRNA (Glut4): 73 percentage of untreated control (UTC)

346687 (AGCAAGCCCAGACCGCAAAAAG; all 2'-MOE, all phosphorothioate, methylation of C not given here) [compound 346687]
PPAR gamma mRNA (PPARγ): 60 percentage of untreated control (UTC) | aP2 mRNA (aP2): 56 percentage of untreated control (UTC) | HSL mRNA (HSL): 53 percentage of untreated control (UTC) | TG (triglyceride accumulation) (adipocytes): 55 percentage of untreated control (UTC) | GLUT4 mRNA (Glut4): 35 percentage of untreated control (UTC)

346688 (UAGUUGGCAAGUCUAGAACCA; all 2'-MOE, all phosphorothioate, methylation of C and T or U not given here) [compound 346688]
PPAR gamma mRNA (PPARγ): 55 percentage of untreated control (UTC) | aP2 mRNA (aP2): 48 percentage of untreated control (UTC) | HSL mRNA (HSL): 39 percentage of untreated control (UTC) | TG (triglyceride accumulation) (adipocytes): 33 percentage of untreated control (UTC) | GLUT4 mRNA (Glut4): 12 percentage of untreated control (UTC)

346689 (CAUCAUUACCAGGCAGUAUUAGAG; all 2'-MOE, all phosphorothioate, methylation of C and T or U not given here) [compound 346689]
PPAR gamma mRNA (PPARγ): 64 percentage of untreated control (UTC) | aP2 mRNA (aP2): 79 percentage of untreated control (UTC) | HSL mRNA (HSL): 63 percentage of untreated control (UTC) | TG (triglyceride accumulation) (adipocytes): 59 percentage of untreated control (UTC) | GLUT4 mRNA (Glut4): 45 percentage of untreated control (UTC)

346691 (GCAGAAGCAUUUCCACACAC; all 2'-MOE, all phosphorothioate, methylation of C and T or U not given here) [compound 346691]
PPAR gamma mRNA (PPARγ): 79 percentage of untreated control (UTC) | aP2 mRNA (aP2): 69 percentage of untreated control (UTC) | HSL mRNA (HSL): 69 percentage of untreated control (UTC) | TG (triglyceride accumulation) (adipocytes): 56 percentage of untreated control (UTC) | GLUT4 mRNA (Glut4): 64 percentage of untreated control (UTC)

346692 (UAAACGGAACCACUAGUGACUUG; all 2'-MOE, all phosphorothioate, methylation of C and T or U not given here) [compound 346692]
PPAR gamma mRNA (PPARγ): 28 percentage of untreated control (UTC) | aP2 mRNA (aP2): 26 percentage of untreated control (UTC) | HSL mRNA (HSL): 18 percentage of untreated control (UTC) | TG (triglyceride accumulation) (adipocytes): 35 percentage of untreated control (UTC) | GLUT4 mRNA (Glut4): 11 percentage of untreated control (UTC)

346693 (CCCUCUGGUCAACCAGUCACA; all 2'-MOE, all phosphorothioate, methylation of C and T or U not given here) [compound 346693]
PPAR gamma mRNA (PPARγ): 81 percentage of untreated control (UTC) | aP2 mRNA (aP2): 77 percentage of untreated control (UTC) | HSL mRNA (HSL): 66 percentage of untreated control (UTC) | TG (triglyceride accumulation) (adipocytes): 69 percentage of untreated control (UTC) | GLUT4 mRNA (Glut4): 65 percentage of untreated control (UTC)

346694 (AACCCAUGGAAUUCAGUUCUCA; all 2'-MOE, all phosphorothioate, methylation of C and T or U not given here) [compound 346694]
PPAR gamma mRNA (PPARγ): 32 percentage of untreated control (UTC) | aP2 mRNA (aP2): 41 percentage of untreated control (UTC) | HSL mRNA (HSL): 18 percentage of untreated control (UTC) | TG (triglyceride accumulation) (adipocytes): 31 percentage of untreated control (UTC) | GLUT4 mRNA (Glut4): 5 percentage of untreated control (UTC)

346695 (CACUGGUACAAGGGUUGGGAGA; all 2'-MOE, all phosphorothioate, methylation of C and T or U not given here) [compound 346695]
PPAR gamma mRNA (PPARγ): 78 percentage of untreated control (UTC) | aP2 mRNA (aP2): 72 percentage of untreated control (UTC) | HSL mRNA (HSL): 73 percentage of untreated control (UTC) | TG (triglyceride accumulation) (adipocytes): 69 percentage of untreated control (UTC) | GLUT4 mRNA (Glut4): 58 percentage of untreated control (UTC)

346906 (ACAGGAUUGAGGGGGGGCCCU; all 2'-MOE, all phosphorothioate, methylation of C and T or U not given here) [compound 346906]
PPAR gamma mRNA (PPARγ): 80 percentage of untreated control (UTC) | aP2 mRNA (aP2): 77 percentage of untreated control (UTC) | HSL mRNA (HSL): 70 percentage of untreated control (UTC) | TG (triglyceride accumulation) (adipocytes): 83 percentage of untreated control (UTC) | GLUT4 mRNA (Glut4): 70 percentage of untreated control (UTC)

346907 (AUGUAUGUGGGACGGUAAACCA; all 2'-MOE, all phosphorothioate, methylation of C and T or U not given here) [compound 346907]
PPAR gamma mRNA (PPARγ): 51 percentage of untreated control (UTC) | aP2 mRNA (aP2): 50 percentage of untreated control (UTC) | HSL mRNA (HSL): 36 percentage of untreated control (UTC) | TG (triglyceride accumulation) (adipocytes): 47 percentage of untreated control (UTC) | GLUT4 mRNA (Glut4): 37 percentage of untreated control (UTC)

346908 (GCUUUGACAAUACUAUUGCACUG; all 2'-MOE, all phosphorothioate, methylation of C and T or U not given here) [compound 346908]
PPAR gamma mRNA (PPARγ): 77 percentage of untreated control (UTC) | aP2 mRNA (aP2): 77 percentage of untreated control (UTC) | HSL mRNA (HSL): 71 percentage of untreated control (UTC) | TG (triglyceride accumulation) (adipocytes): 75 percentage of untreated control (UTC) | GLUT4 mRNA (Glut4): 65 percentage of untreated control (UTC)

346909 (UCACCAAAACAUGGAAGCACUUA; all 2'-MOE, all phosphorothioate, methylation of C and T or U not given here) [compound 346909]
PPAR gamma mRNA (PPARγ): 77 percentage of untreated control (UTC) | aP2 mRNA (aP2): 68 percentage of untreated control (UTC) | HSL mRNA (HSL): 64 percentage of untreated control (UTC) | TG (triglyceride accumulation) (adipocytes): 66 percentage of untreated control (UTC) | GLUT4 mRNA (Glut4): 64 percentage of untreated control (UTC)

346910 (GCAAUCAGCUAACUACACUGCCU; all 2'-MOE, all phosphorothioate, methylation of C and T or U not given here) [compound 346910]
PPAR gamma mRNA (PPARγ): 83 percentage of untreated control (UTC) | aP2 mRNA (aP2): 78 percentage of untreated control (UTC) | HSL mRNA (HSL): 69 percentage of untreated control (UTC) | TG (triglyceride accumulation) (adipocytes): 80 percentage of untreated control (UTC) | GLUT4 mRNA (Glut4): 63 percentage of untreated control (UTC)

346913 (AGAAAGGCAGCAGGUCGUAUAG; all 2'-MOE, all phosphorothioate, methylation of C and T or U not given here) [compound 346913]
PPAR gamma mRNA (PPARγ): 59 percentage of untreated control (UTC) | aP2 mRNA (aP2): 66 percentage of untreated control (UTC) | HSL mRNA (HSL): 58 percentage of untreated control (UTC) | TG (triglyceride accumulation) (adipocytes): 63 percentage of untreated control (UTC) | GLUT4 mRNA (Glut4): 40 percentage of untreated control (UTC)

346914 (AUCUGCACUGUCAGCACUUUA; all 2'-MOE, all phosphorothioate, methylation of C and T or U not given here) [compound 346914]
PPAR gamma mRNA (PPARγ): 41 percentage of untreated control (UTC) | aP2 mRNA (aP2): 48 percentage of untreated control (UTC) | HSL mRNA (HSL): 27 percentage of untreated control (UTC) | TG (triglyceride accumulation) (adipocytes): 41 percentage of untreated control (UTC) | GLUT4 mRNA (Glut4): 16 percentage of untreated control (UTC)

346915 (ACAUCGUUACCAGACAGUGUUA; all 2'-MOE, all phosphorothioate, methylation of C and T or U not given here) [compound 346915]
PPAR gamma mRNA (PPARγ): 90 percentage of untreated control (UTC) | aP2 mRNA (aP2): 83 percentage of untreated control (UTC) | HSL mRNA (HSL): 67 percentage of untreated control (UTC) | TG (triglyceride accumulation) (adipocytes): 73 percentage of untreated control (UTC) | GLUT4 mRNA (Glut4): 75 percentage of untreated control (UTC)

346917 (CAGCUAUGCCAGCAUCUUGCCU; all 2'-MOE, all phosphorothioate, methylation of C and T or U not given here) [compound 346917]
PPAR gamma mRNA (PPARγ): 31 percentage of untreated control (UTC) | aP2 mRNA (aP2): 33 percentage of untreated control (UTC) | HSL mRNA (HSL): 27 percentage of untreated control (UTC) | TG (triglyceride accumulation) (adipocytes): 39 percentage of untreated control (UTC) | GLUT4 mRNA (Glut4): 20 percentage of untreated control (UTC)

346919 (CUACCUGCACGAACAGCACUUUG; all 2'-MOE, all phosphorothioate, methylation of C and T or U not given here) [compound 346919]
PPAR gamma mRNA (PPARγ): 65 percentage of untreated control (UTC) | aP2 mRNA (aP2): 64 percentage of untreated control (UTC) | HSL mRNA (HSL): 45 percentage of untreated control (UTC) | TG (triglyceride accumulation) (adipocytes): 44 percentage of untreated control (UTC) | GLUT4 mRNA (Glut4): 50 percentage of untreated control (UTC)
